Assay results: patent US20050209251A1, “Substituted pyrazolo-pyrimidine-4-ones” (priority 2002, published 2005)

Assays:
[1] = logP determination by reversed-phase HPLC (EEC Directive 79/831 Annex V.A8), acidic range; assay type: physicochemical; conditions: for chromatographic logP: pH 2, HPLC, C18 reversed-phase column, read-out: logP (pH 2)
Description: The logP values given in the table were determined in accordance with EEC Directive 79/831 Annex V.A8 by HPLC (High Performance Liquid Chromatography) using a reversed-phase column (C 18). Temperature: 43° C.
(a) Mobile phases for the determination in the acidic range: 0.1% phosphoric acid, acetonitrile; linear gradient from 10% acetonitrile to 90% acetonitrile—the corresponding measurement results in Table 1 are marked a).
Calibration was carried out using unbranched alkan-2-ones (having 3 to 16 carbon atoms) with known logP values (determination of the logP values by the retention times using linear interpolation between two successive alkanones).

weeds [2] = assay: Post-emergence test (herbicidal action); assay type: in vivo; conditions: test plants of 5-15 cm sprayed, rated after three weeks
Description: Post-Emergence Test (Herbicidal Action)
(§1) To produce a suitable preparation of active compound, 1 part by weight of active compound is mixed with the stated amount of solvent, the stated amount of emulsifier is added and the concentrate is diluted with water to the desired concentration.
Test plants of a height of 5-15 cm are sprayed with the preparation of active compound such that the particular amounts of active compound desired are applied per unit area. The concentration of the spray liquor is chosen such that the particular amounts of active compound desired are applied in 1000 l of water/ha.
(§2) After three weeks, the degree of damage to the plants is rated in % damage in comparison to the development of the untreated control.

weeds [3] = assay: Pre-emergence test (herbicidal action); assay type: in vivo; conditions: soil sprayed 24 hours after sowing, rated after three weeks
Description: Pre-Emergence Test (Herbicidal Action)
as §1
Seeds of the test plants are sown in normal soil. After 24 hours, the soil is sprayed with the preparation of active compound such that the particular amount of active compound desired is applied per unit area. The concentration of active compound in the spray liquor is chosen such that the particular amount of active compound desired is applied in 1000 litres of water per hectare.
as §2

Meloidogyne incognita = assay: Meloidogyne test (nematicidal action); assay type: in vivo; conditions: Meloidogyne incognita egg/larvae suspension, lettuce in sand
Description: Meloidogyne Test (Nematicidal Action)
To produce a suitable preparation of active compound, 1 part by weight of active compound is mixed with the stated amounts of solvent and emulsifier, and the concentrate is diluted with water to the desired concentration.
Vessels are filled with sand, solution of active compound, Meloidogyne incognita egg/larvae suspension and lettuce seeds. The lettuce seeds germinate and the plants develop. On the roots, galls are formed.
After the desired period of time, the nematicidal action is determined in % by the formation of galls. 100% means that no galls have been found; 0% means that the number of galls on treated plants corresponds to that of the untreated control.

| SMILES | chromatographic logP [1] | melting point | herbicidal action against weeds (degree of damage) (weeds [2]) | herbicidal action against weeds (degree of damage) (weeds [3]) | nematicidal action (formation of galls) (Meloidogyne incognita) | logP a) (Table 1, Physical data) [1] |
| --- | --- | --- | --- | --- | --- | --- |
| O=c1[nH]c(C2CC2)nc2c1cnn2-c1ncc(C(F)(F)F)cc1Cl [Example 5, 1-(3-chloro-5-trifluoromethylpyridin-2-yl)-6-cyclopropyl-1,5-dihydropyrazolo[3,4-d]pyrimidin-4-one] | 2.19 | 239 °C | – | – | – | – |
| O=c1[nH]c(C2(F)CC2)nc2c1cnn2-c1ncc(C(F)(F)F)cc1Cl [Example 6, 6-(1-fluorocyclopropyl)-1-(3-chloro-5-trifluoromethylpyridin-2-yl)-1,5-dihydropyrazolo[3,4-d]pyrimidin-4-one] | 2.29 | 211 °C | strong action against weeds | – | – | – |
| CCc1nc2c(cnn2-c2ncc(C(F)(F)F)cc2Cl)c(=O)n1C [Example 16] | – | – | strong action against weeds | strong action against weeds | good activity | (I) logP = 2.46^a) |
| Cn1c(C2CC2)nc2c(cnn2-c2ncc(Cl)cc2Cl)c1=O [Example 80] | – | – | strong action against weeds | strong action against weeds | good activity | (I) logP = 2.30^a) |

More lines, main results first:

| chromatographic logP [1] | melting point | SMILES | herbicidal action against weeds (degree of damage) (weeds [2]) | herbicidal action against weeds (degree of damage) (weeds [3]) | nematicidal action (formation of galls) (Meloidogyne incognita) | logP a) (Table 1, Physical data) [1] |
| --- | --- | --- | --- | --- | --- | --- |
| 1.46 | 196 °C | NC(=O)c1cnn(-c2ncc(C(F)(F)F)cc2Cl)c1N [II-1, 5-amino-1-(3-chloro-5-trifluoromethylpyridin-2-yl)pyrazole-4-carboxamide] | – | – | – | – |
| 2.02 | 204 °C | NC(=O)c1cnn(-c2ncc(C(F)(F)F)cc2Cl)c1NC(=O)C1(F)CC1 [VI-1, 5-(1-fluorocyclopropylcarbonylamino)-1-(3-chloro-5-trifluoromethylpyridin-2-yl)pyrazole-4-carboxamide] | – | – | – | – |
